In patent US12544348B2, “Methods for treating APOE4/4-associated disorders” (The Regents of the University of California, priority 2018, dated 2026):

Tested on: apoE3-KI mice
Assay: Morris water maze (MWM) spatial learning and memory, aged apoE3-KI mice
Assay type: in vivo
Conditions: for short-term memory, 24-hour probe trial: vs vehicle-treated apoE3-KI
From the text: Mice. All protocols and procedures followed the guidelines of the Laboratory Animal Resource Center at the University of California, San Francisco (UCSF). All mice were housed under identical conditions from birth through death (12-hour light/dark cycle, housed 5/cage, PicoLab Rodent Diet 20). All mouse lines were maintained on a C57Bl/6J background. ApoE3-KI and apoE4-KI homozygous mouse lines (Taconic)^30,31 were born and aged under normal conditions at the Gladstone Institutes/UCSF animal facility. Female apoE-KI mice were used because of their susceptibility to AD-related neuronal and behavioral deficits. The ages of the mice are indicated in the behavioral testing section of the online methods. Bumetanide treatment. Bumetanide was prepared at 220 μM in 2% DMSO in 0.9% sterile saline, adjusted to pH 8.5 with NaOH for solubility, and given by i.p. injection daily starting 6 weeks before and continuing throughout behavioral assessment. Body weight was measured weekly during bumetanide treatment; injection volume was calculated to achieve a dose of 0.02 (low) or 0.2 (high) mg bumetanide/kg body mass (e.g., 50-ul daily injection for a 20-g mouse). Control mice were injected with a matched volume of 2% DMSO in 0.9% sterile saline, pH 8.5. […] Behavioral testing. Mice were singly housed before testing. Each mouse was assigned a random number, so researchers were blinded to genotype and treatment information. At about 14 months of age, apoE3-KI and apoE4-KI mice were randomly assigned to treatment groups: apoE3-KI vehicle (n=10, age 14.01±0.44 months), apoE3-KI low bumetanide (n=11, age 14.30±0.33 months), apoE3-KI high bumetanide (n=10, age 13.74±0.22 months), apoE4-KI vehicle (n=10, age 14.10±0.35), apoE4-KI low bumetanide (n=10, age 14.70±0.27 months), apoE4-KI high bumetanide (n=9, age 13.77±0.28 months). Treatment was administered daily by i.p. injection beginning 6 weeks before and continuing throughout the 14 days of testing in the Morris water maze (MWM); injections were given at the end of the light cycle and after the day's test. The MWM pool (diameter, 122 cm) contained opaque water (22-23° C.) with a platform 10 cm in diameter. The platform was submerged 1.5 cm during hidden platform sessions^20-23,32 and marked with black-and-white-striped mast (15 cm high) during cued training sessions. Mice were trained to locate the hidden platform (hidden days 1-5) and the cued platform (visible days 1-3) in two daily sessions (3.5 h apart), each consisting of two 60-s trials (hidden and cued training) with a 15-min intertrial interval. Distal visual cues on the walls of the behavioral testing room remained constant throughout the test. Visible trials took place after training and memory probes and were 60 seconds long with a cued visible platform. The platform location remained constant in the hidden platform sessions but was changed for each cued (visible) platform session. Entry points were changed semirandomly between trials. At 24, 72, and 120 hours after the last hidden platform training, a 60-s probe trial (platform removed) was done. The entry point for the probe trial was in the southwest quadrant, and the target quadrant was the northeast quadrant. Performance was monitored with an Etho Vision video-tracking system (Noldus Information Technology). For the probe trials, the following analyses were performed (1) the percent time spent in the target quadrant versus average time spent in the three other quadrants, (2) the number of crossings over the position of the target platform versus the average number of crossings over the equivalent positions in the three other quadrants and (3) the distance to platform over the first 10 seconds. Statistical analyses. Behavior metrics are expressed as mean±SEM. All values for n are the numbers of mice or biological replicates. The distribution of data was assessed with the Shapiro-Wilk normality test; most of the data were normally distributed. […]

[1] = apoE3-KI mice, high dose 0.2 mg/kg daily i.p. 8 weeks
[2] = apoE3-KI mice, low dose 0.02 mg/kg daily i.p. 8 weeks

## CCCCNc1cc(C(=O)O)cc(S(N)(=O)=O)c1Oc1ccccc1 [bumetanide, 3-(butylamino)-4-phenoxy-5-sulfamoylbenzoic acid]
Aged apoE3-KI mice, dose not stated, vehicle-treated apoE3-KI mice did not
  long-term memory, 120-hour probe trial (summary paragraph, dose not stated): remembered the hidden platform location
apoE3-KI mice, 0.02 or 0.2 mg/kg daily i.p. 8 weeks, vs vehicle, learning days 1-5
  learning curve (escape latency) in hidden platform trials: did not differ
[1]
  long-term memory, 120-hour probe trial: forgot the hidden platform location
  platform crossings in target quadrant versus other quadrants, 24-hour probe trial: not apoE3-KI mice
  platform crossings in target quadrant versus other quadrants, 120-hour probe trial: not apoE3-KI mice
  short-term memory, 24-hour probe trial: impaired short-term memory
[2]
  long-term memory, 120-hour probe trial: forgot the hidden platform location
  short-term memory, 24-hour probe trial: performed equally well
